The source made the active and inactive calls. The rule behind the calls is not given here.
Key:
[1] = test system: Rattus norvegicus; assay: Toxicity in rat assessed as convulsions at 10 to 80 mg/kg, ip; type: organism-based; set-up: dose 10-80 mg/kg, route intraperitoneal; settings: in vivo
[2] = test system: Rattus norvegicus; assay: Toxicity in rat assessed as seizures at 10 to 80 mg/kg, ip; type: organism-based; set-up: dose 10-80 mg/kg, route intraperitoneal; settings: in vivo
[3] = test system: Rattus norvegicus; assay: Toxicity in rat assessed as hippocampal damage at 10 to 80 mg/kg, ip; type: organism-based, Hippocampus; set-up: dose 10-80 mg/kg, route intraperitoneal; settings: in vivo
[4] = test system: Rattus norvegicus; assay: Anticonvulsant activity in rat assessed as protection against kainic acid-induced convulsions at 10 mg/kg, ip; type: functional, organism-based; set-up: dose 10 mg/kg
[5] = test system: Rattus norvegicus; assay: Anticonvulsant activity in rat assessed as protection against kainic acid-induced seizures in denate gyrus at 10 mg/kg, ip; type: functional, organism-based; set-up: dose 10 mg/kg
[6] = test system: Rattus norvegicus; assay: Reduction in degeneration pattern in kainic acid-induced rat brain inCA3 region at 10 mg/kg, ip by GFAP staining; type: functional, organism-based; set-up: dose 10 mg/kg
[7] = test system: Rattus norvegicus; assay: Decrease in astrocyte reactivity in kainic acid-induced rat brain inCA3 region at 10 mg/kg, ip by GFAP staining; type: functional, organism-based; set-up: dose 10 mg/kg
[8] = test system: Rattus norvegicus; assay: Reduction in IL-1beta in kainic acid-induced rat brain at 10 mg/kg, ip; type: functional, organism-based; set-up: dose 10 mg/kg
[9] = test system: Rattus norvegicus; assay: Reduction in TNFalpha in kainic acid-induced rat brain at 10 mg/kg, ip; type: functional, organism-based; set-up: dose 10 mg/kg
[10] = test system: Rattus norvegicus; assay: Neuroprotective activity in kainic acid-induced rat assessed as decrease in hippocampal neuronal loss at 10 mg/kg, ip; type: functional, organism-based; set-up: dose 10 mg/kg
[11] = test system: Rattus norvegicus; assay: Anticonvulsant activity in rat assessed as protection against kainic acid-induced death at 10 mg/kg, ip; type: functional, organism-based; set-up: dose 10 mg/kg

In the case of `CCCCC[C@H]1CCCCCCCCCC(=O)O[C@@H]2[C@@H](O[C@@H]3O[C@H](C)[C@@H](OC(=O)[C@@H](C)CC)[C@H](O)[C@H]3O)[C@H](C)O[C@@H](O[C@H]3[C@H](O[C@H]4[C@H](O1)O[C@H](C)[C@@H](O)[C@@H]4O)O[C@H](COC(=O)[C@H](C)[C@@H](C)O)[C@@H](O)[C@@H]3O)[C@@H]2OC(=O)[C@@H](C)CC` [ORIZABIN XX], the Activity [1] is reported as “Non-toxic”, the Activity [2] is reported as “Non-toxic” and the Activity [3] is reported as “Non-toxic”. For the same compound, the inhibition [4] was “Active”, the Activity [5] was “Active” and the Activity [6] was “Active”. The Activity [7] was “Active”, the Activity [8] was “Active” and the Activity [9] was “Active”. The Activity [10] was “Active” and the Activity [11] was “Active”.
